In ChEMBL document CHEMBL1201862, “PubChem BioAssay data set” (2004):
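Five compound concentrations were applied to cells in 96-well plates for 48 hours; endpoints were derived by simple linear interpolation of the resulting dose-response curve. The concentration for 50% growth inhibition is given as GI50.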 Active and inactive are the calls of the source. Cut-off read from the data, not from the text of the source: active = GI50 up to about 1.1 µM and inactive = higher.

Assays:
Test in all cases: NCI tumour cell line growth inhibition, 48 h
[1] = tested on: MDA-N
[2] = tested on: TK-10
[3] = tested on: EKVX
[4] = tested on: HT-29
[5] = tested on: MDA-MB-231
[6] = tested on: Hs-578T
[7] = tested on: T47D
[8] = tested on: HCT-116
[9] = tested on: A498
[10] = tested on: 786-0
[11] = tested on: HOP-62
[12] = tested on: MDA-MB-435
[13] = tested on: NCI-H23
[14] = tested on: UACC-62
[15] = tested on: CCRF-CEM
[16] = tested on: DU-145
[17] = tested on: M14
[18] = tested on: RPMI-8226
[19] = tested on: HL-60

Structure (SMILES)	GI50 [1]	GI50 [2]	GI50 [3]	GI50 [4]	GI50 [5]	GI50 [6]	GI50 [7]	GI50 [8]	GI50 [9]	GI50 [10]	GI50 [11]	GI50 [12]	GI50 [13]	GI50 [14]	GI50 [15]	GI50 [16]	GI50 [17]	GI50 [18]	GI50 [19]
CC(C)=CC1C(C(=O)OCc2cc3c(cc2Cl)OCO3)C1(C)C (stereo unspecified)	24.7 µM (inactive)	63.2 µM (inactive)	13.5 µM (inactive)	23.1 µM (inactive)	13.5 µM (inactive)	21.9 µM (inactive)	17.3 µM (inactive)	26.4 µM (inactive)	26.9 µM (inactive)	28.4 µM (inactive)	22.7 µM (inactive)	33.7 µM (inactive)	25.8 µM (inactive)	43.1 µM (inactive)	32.6 µM (inactive)	> 100 µM (inactive)	36.7 µM (inactive)		
COc1cccc(/C=C2\S/C(=N/Nc3nc(-c4ccc([N+](=O)[O-])cc4)cs3)NC2=O)c1O	22.2 µM (inactive)	20.7 µM (inactive)	17.4 µM (inactive)	21.9 µM (inactive)	18.4 µM (inactive)	12.3 µM (inactive)	4.66 µM (inactive)	13.1 µM (inactive)	23.4 µM (inactive)	19.9 µM (inactive)	15.3 µM (inactive)	19.5 µM (inactive)	11.7 µM (inactive)		9.89 µM (inactive)	21.9 µM (inactive)	17 µM (inactive)	10.4 µM (inactive)	4.45 µM (inactive)
c1ccc([P+](c2ccccc2)(c2ccccc2)c2ccc([P+](c3ccccc3)(c3ccccc3)c3ccccc3)c3ccccc23)cc1	64.4 µM (inactive)	> 100 µM (inactive)		79.4 µM (inactive)	> 100 µM (inactive)	47.8 µM (inactive)	54.8 µM (inactive)	40 µM (inactive)	> 100 µM (inactive)	> 100 µM (inactive)	> 100 µM (inactive)	84.3 µM (inactive)	57.4 µM (inactive)	86.5 µM (inactive)	64.4 µM (inactive)	67.3 µM (inactive)	> 100 µM (inactive)	57.1 µM (inactive)	41.6 µM (inactive)
C/C(Nc1ccc(Cl)cc1)=C1/CCOC1=O	92.5 µM (inactive)	46.8 µM (inactive)	34.3 µM (inactive)	30.1 µM (inactive)	> 100 µM (inactive)	> 100 µM (inactive)	4.91 µM (inactive)		> 100 µM (inactive)	> 100 µM (inactive)		0.698 µM (active)	> 100 µM (inactive)	0.168 µM (active)	1.55 µM (inactive)	6.31 µM (inactive)	2.62 µM (inactive)	1.27 µM (inactive)	1.15 µM (inactive)
CCCCCCCCCCCCCCCCNC(=O)/C(=C\c1ccc(Cl)c(Cl)c1)NC(=O)c1ccccc1	68.7 µM (inactive)	20 µM (inactive)	44.3 µM (inactive)	35.5 µM (inactive)	18 µM (inactive)	42.8 µM (inactive)	> 100 µM (inactive)	37.9 µM (inactive)	19.9 µM (inactive)	19.4 µM (inactive)	21.4 µM (inactive)	> 100 µM (inactive)	22.8 µM (inactive)			27.4 µM (inactive)	> 100 µM (inactive)	24.4 µM (inactive)	0.431 µM (active)
CSC1=C(C#N)C(=S)N=C(N)C1C(=O)Nc1ccc(C)cc1 (stereo unspecified)	> 100 µM (inactive)	> 100 µM (inactive)	> 100 µM (inactive)	> 100 µM (inactive)	> 100 µM (inactive)	> 100 µM (inactive)	> 100 µM (inactive)	81.5 µM (inactive)	68.9 µM (inactive)	> 100 µM (inactive)		> 100 µM (inactive)	> 100 µM (inactive)	> 100 µM (inactive)	> 100 µM (inactive)	> 100 µM (inactive)	> 100 µM (inactive)	> 100 µM (inactive)	> 100 µM (inactive)
O=[N+]([O-])c1ccc2c(c1)c1nn2CCCCOc2nn(c3ccc([N+](=O)[O-])cc23)CCCCO1	> 100 µM (inactive)		> 100 µM (inactive)		> 100 µM (inactive)	> 100 µM (inactive)	> 100 µM (inactive)	> 100 µM (inactive)	> 100 µM (inactive)	> 100 µM (inactive)	0.743 µM (active)	> 100 µM (inactive)	> 100 µM (inactive)			> 100 µM (inactive)	> 100 µM (inactive)	> 100 µM (inactive)	> 100 µM (inactive)
O=C(Nc1cccc(NC(=O)C(=O)C2CCC3=C(Sc4ccccc4N3)C2=O)n1)C(=O)C1CCC2=C(Sc3ccccc3N2)C1=O (stereo unspecified)	40.2 µM (inactive)		85.1 µM (inactive)	67.9 µM (inactive)	> 100 µM (inactive)	53 µM (inactive)	50.4 µM (inactive)	40.6 µM (inactive)	> 100 µM (inactive)	91.8 µM (inactive)		85.9 µM (inactive)	68.9 µM (inactive)	96.4 µM (inactive)	70.1 µM (inactive)	> 100 µM (inactive)	86.3 µM (inactive)	40.2 µM (inactive)	39.5 µM (inactive)
Cc1c(C)c2c(c(N)c1C#N)C(=O)N(NC(=O)c1ccccc1)C2=O	> 100 µM (inactive)	> 100 µM (inactive)	76.7 µM (inactive)		> 100 µM (inactive)	> 100 µM (inactive)	24.8 µM (inactive)	> 100 µM (inactive)	> 100 µM (inactive)	> 100 µM (inactive)		> 100 µM (inactive)		> 100 µM (inactive)	> 100 µM (inactive)	> 100 µM (inactive)	> 100 µM (inactive)	> 100 µM (inactive)	> 100 µM (inactive)
CC1(c2nc3cc(Cl)c(Cl)cc3[nH]2)CCC(C(=O)O)C(C)(C)O1 (stereo unspecified)	> 100 µM (inactive)	> 100 µM (inactive)	> 100 µM (inactive)	> 100 µM (inactive)	> 100 µM (inactive)	> 100 µM (inactive)	> 100 µM (inactive)	> 100 µM (inactive)		> 100 µM (inactive)	> 100 µM (inactive)	> 100 µM (inactive)	> 100 µM (inactive)	> 100 µM (inactive)	> 100 µM (inactive)	> 100 µM (inactive)	> 100 µM (inactive)	> 100 µM (inactive)	> 100 µM (inactive)
CSC1NNC2(C(=O)N1)c1ccccc1-c1ccccc12 (stereo unspecified)	> 10 µM (inactive)	> 10 µM (inactive)	8.32 µM (inactive)	> 10 µM (inactive)	> 10 µM (inactive)	> 10 µM (inactive)	5.53 µM (inactive)	> 10 µM (inactive)		> 10 µM (inactive)	> 10 µM (inactive)	> 10 µM (inactive)	> 10 µM (inactive)	> 10 µM (inactive)	> 10 µM (inactive)	> 10 µM (inactive)	> 10 µM (inactive)	> 10 µM (inactive)	> 10 µM (inactive)
O=[N+]([O-])C(=C(Nc1ccccc1)Nc1ccccc1)C(Cl)=C(Cl)Cl	12.6 µM (inactive)	22.6 µM (inactive)	15.7 µM (inactive)	16.4 µM (inactive)	17.3 µM (inactive)	21.7 µM (inactive)	19.3 µM (inactive)	12.5 µM (inactive)	9.93 µM (inactive)	15.8 µM (inactive)	21.9 µM (inactive)	15.3 µM (inactive)	13.6 µM (inactive)	15.6 µM (inactive)	8.04 µM (inactive)	17.5 µM (inactive)	18.2 µM (inactive)	32.8 µM (inactive)	
O=C(O)C1CCCCC1C(=O)Nc1nc2ccccc2[nH]1 (stereo unspecified)	> 100 µM (inactive)	> 100 µM (inactive)	63 µM (inactive)	> 100 µM (inactive)	> 100 µM (inactive)	> 100 µM (inactive)	> 100 µM (inactive)	> 100 µM (inactive)	> 100 µM (inactive)	> 100 µM (inactive)	> 100 µM (inactive)	> 100 µM (inactive)	> 100 µM (inactive)	> 100 µM (inactive)	> 100 µM (inactive)	> 100 µM (inactive)	> 100 µM (inactive)	> 100 µM (inactive)	
Cc1ccc(/N=N/C(=N\c2ccc(F)cc2)c2ccc(N(CCC#N)CCC#N)cc2)cc1	> 100 µM (inactive)	> 100 µM (inactive)	99.5 µM (inactive)	> 100 µM (inactive)	> 100 µM (inactive)	53.7 µM (inactive)	47.1 µM (inactive)	74.1 µM (inactive)	> 100 µM (inactive)	> 100 µM (inactive)	> 100 µM (inactive)	82.2 µM (inactive)	> 100 µM (inactive)	> 100 µM (inactive)	97.5 µM (inactive)	> 100 µM (inactive)	> 100 µM (inactive)	74.6 µM (inactive)	
Nn1c(CCCCCCCCc2nnc(COc3ccccc3)n2N)nnc1COc1ccccc1	> 100 µM (inactive)	> 100 µM (inactive)	> 100 µM (inactive)	> 100 µM (inactive)	> 100 µM (inactive)	> 100 µM (inactive)	> 100 µM (inactive)	> 100 µM (inactive)	> 100 µM (inactive)	> 100 µM (inactive)	> 100 µM (inactive)	> 100 µM (inactive)	> 100 µM (inactive)	> 100 µM (inactive)		> 100 µM (inactive)	> 100 µM (inactive)	> 100 µM (inactive)	> 100 µM (inactive)
